Calls of active or inactive are those of the source.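 Rule for the calls: active = IC50 at or below 20 µM in the dose response confirmation; inactive = the rest.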
These compounds were tested against Low molecular weight phosphotyrosine protein phosphatase (Homo sapiens) (UniProt P24666) (assay: LMPTP phosphatase inhibitors, SAR follow-up, biochemical, fluorescence intensity (AID 686962)). Details: recombinant LMPTP-A, OMFP fluorogenic substrate, 50 min.
Sequence of Low molecular weight phosphotyrosine protein phosphatase (Homo sapiens) (P24666 whole entry, looked up): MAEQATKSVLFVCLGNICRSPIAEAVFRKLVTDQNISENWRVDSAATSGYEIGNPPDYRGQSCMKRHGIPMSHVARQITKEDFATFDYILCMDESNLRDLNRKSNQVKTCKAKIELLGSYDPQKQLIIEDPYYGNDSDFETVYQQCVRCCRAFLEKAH

Row | SMILES | IC50
1 | Cc1cccc(-c2nc(NCCCN3CCOCC3)c3ccccc3n2)c1 | 13.5 µM
2 | CC(C)OCCCNc1nc(-c2ccccc2)nc2ccccc12 | 18.1 µM
3 | Cc1ccc(-c2nc(NCc3cccnc3)c3ccccc3n2)cc1 | 12.9 µM
4 | Fc1ccccc1-c1nc(NC2CCCC2)c2ccccc2n1 | 10.6 µM
5 | c1ccc(-c2nc(NCc3cccnc3)c3ccccc3n2)cc1 | 19 µM
6 | Cc1ccc(-c2nc(NCCN3CCOCC3)c3ccccc3n2)cc1 | 18.8 µM
7 | Nc1nc(N)c(Cc2ccc(Cl)cc2Cl)c(N)n1 | 11.5 µM
8 | c1ccc(-c2nc(NCCCn3ccnc3)c3ccccc3n2)cc1 | 17.8 µM
9 | O=C(OCCNc1nc(-c2ccccc2)nc2ccccc12)c1cccnc1 | inactive
10 | O=C(OCCNc1nc(-c2ccccc2)nc2ccccc12)c1ccncc1 | inactive
11 | Cc1c(CCC(=O)O)c(=O)oc2c(C)c(OCc3ccccc3Cl)ccc12 | 7.41 µM
12 | Clc1cccc(Cl)c1Cn1cnc(=NCc2ccco2)c2[nH]cnc21 | 10.2 µM
13 | c1ccc(-c2cc(NCCN3CCCCC3)c3ccccc3n2)cc1 | 2.86 µM
14 | Fc1ccccc1-c1nc(NCCCN2CCOCC2)c2ccccc2n1 | inactive
15 | COc1ccccc1CNc1ncnc2ccsc12 | > 80 µM (inactive)
16 | CCc1nc(N)nc(N)c1-c1ccc(Cl)cc1 | 14.7 µM
17 | c1ccc(-c2cc(N3CCCCC3)c3ccccc3n2)cc1 | 11.1 µM
